From patent publication US11834460B2, “Imide-based modulators of proteolysis and associated methods of use” (YALE UNIVERSITY, priority 2018, dated 2023)

Target: T1, androgen receptor (AR) (Homo sapiens, UniProt P10275)
T1 construct: detects endogenous levels of total androgen receptor protein; endogenous in cells; host or cells: VCaP
T1 sequence (P10275 1-920): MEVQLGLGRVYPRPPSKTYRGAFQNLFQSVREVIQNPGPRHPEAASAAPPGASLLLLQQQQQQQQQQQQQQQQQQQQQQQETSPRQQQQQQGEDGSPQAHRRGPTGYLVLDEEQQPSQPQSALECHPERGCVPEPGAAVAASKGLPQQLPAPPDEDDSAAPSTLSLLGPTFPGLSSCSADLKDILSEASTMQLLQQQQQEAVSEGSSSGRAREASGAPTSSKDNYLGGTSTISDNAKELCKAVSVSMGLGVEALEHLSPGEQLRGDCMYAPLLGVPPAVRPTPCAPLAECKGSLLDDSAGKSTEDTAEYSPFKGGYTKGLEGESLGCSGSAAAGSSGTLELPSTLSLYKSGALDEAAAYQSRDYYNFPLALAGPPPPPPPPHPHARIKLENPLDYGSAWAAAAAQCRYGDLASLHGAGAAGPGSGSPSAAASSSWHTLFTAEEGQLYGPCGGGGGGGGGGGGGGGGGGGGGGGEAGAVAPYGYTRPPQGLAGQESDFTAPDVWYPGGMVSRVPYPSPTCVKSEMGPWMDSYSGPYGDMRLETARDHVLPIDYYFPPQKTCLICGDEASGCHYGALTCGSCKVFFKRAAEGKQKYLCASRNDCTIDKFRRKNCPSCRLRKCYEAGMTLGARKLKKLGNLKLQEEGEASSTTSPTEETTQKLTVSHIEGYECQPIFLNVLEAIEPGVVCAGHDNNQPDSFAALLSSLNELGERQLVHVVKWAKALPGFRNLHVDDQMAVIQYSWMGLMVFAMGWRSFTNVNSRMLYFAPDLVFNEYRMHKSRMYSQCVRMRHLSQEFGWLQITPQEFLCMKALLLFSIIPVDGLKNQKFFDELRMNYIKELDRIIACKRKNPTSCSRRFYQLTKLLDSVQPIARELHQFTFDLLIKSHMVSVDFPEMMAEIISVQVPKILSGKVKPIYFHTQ
Assay: AR ELISA protocol, degradation in VCaP cells
Assay type: cell-based
Set-up: Dmax: dose or concentration left out as unconfirmed
Conditions: 1 uM, 16 h
Procedure: (§1) In each bioassay, cells were treated with varying amounts of compounds encompassed by the present disclosure, as shown in Table 1. The degradation of the following proteins were evaluated in this study: TANK-binding kinase 1 (TBK1), estrogen receptor α (ERα), bromodomain-containing protein 4 (BRD4), androgen receptor (AR), and c-Myc.
VCaP cells were purchased from ATCC and cultured in Dulbecco's Modified Eagle's Medium (ATCC), supplemented with 10% FBS (ATCC) and Penicillin/Streptomycin (Life Technologies). DMSO control and compound treatments (0.0001 μM-1 μM) were performed in 96-well plates for 16 h. Cells were harvested, and lysed with Cell Lysis Buffer (Catalog #9803) (20 mM Tris-HCL (pH 7.5), 150 mM NaCl, 1 mM Na2EDTA, 1 mM EGTA, 1% Triton, 2.5 mM sodium pyrophosphate, 1 mM B-glycerophosphate, 1 mM Na3VO4, 1 ug/ml leupeptin. Lysates were clarified at 16,000 g for 10 minutes, and loaded into the PathScan AR ELISA (Cell Signaling Catalog #12850). The PathScan® Total Androgen Receptor Sandwich ELISA Kit is a solid phase sandwich enzyme-linked immunosorbent assay (ELISA) that detects endogenous levels of total androgen receptor protein. An Androgen Receptor Rabbit mAb has been coated onto the microwells. After incubation with cell lysates, androgen receptor protein is captured by the coated antibody. Following extensive washing, an Androgen Receptor Mouse Detection mAb is added to detect the captured androgen receptor protein. Anti-mouse IgG, HRP-linked Antibody is then used to recognize the bound detection antibody. HRP substrate, TMB, is added to develop color. The magnitude of absorbance for the developed color is proportional to the quantity of total androgen receptor protein. Antibodies in kit are custom formulations specific to kit.

CC1(C)C(=O)N(c2ccc(C#N)c(C(F)(F)F)c2)C(=S)N1c1ccc(OCCCOCCCOCCNc2cccc3c2C(=O)N(C2CCC(=O)NC2=O)C3=O)cc1 (stereo not drawn) [Compound 2] and CC1(C)C(=O)N(c2ccc(C#N)c(C(F)(F)F)c2)C(=S)N1c1ccc(OCCOCCOCCOCCNc2cccc3c2C(=O)N(C2CCC(=O)NC2=O)C3=O)cc1 (stereo not drawn) [Compound 3, 4-(3-(4-(2-(2-(2-(2-((2-(2,6-dioxopiperidin-3-yl)-1,3-dioxoisoindolin-4-yl)amino)ethoxy)ethoxy)ethoxy)ethoxy)phenyl)-4,4-dimethyl-5-oxo-2-thioxo-imidazolidin-1-yl)-2-(trifluoromethyl) benzonitrile] fall in the same range of Dmax at 1 µM: 31 to 50% for the first, 31 to 50% for the second.

CC1(C)C(=O)N(c2ccc(C#N)c(C(F)(F)F)c2)C(=S)N1c1ccc(OCCOCCOCCOCCNc2cccc3c2C(=O)N([C@H]2CCC(=O)NC2=O)C3=O)cc1 [Compound 4, (S)-4-(3-(4-(2-(2-(2-(2-((2-(2,6-dioxopiperidin-3-yl)-1,3-dioxoisoindolin-4-yl)amino)ethoxy)ethoxy)ethoxy)ethoxy)phenyl)-4,4-dimethyl-5-oxo-2-thioxoimidazolidin-1-yl)-2-(trifluoromethyl) benzonitrile] and CC1(C)C(=O)N(c2ccc(C#N)c(C(F)(F)F)c2)C(=S)N1c1ccc(OCCOCCOCCOCCNc2cccc3c2C(=O)N([C@@H]2CCC(=O)NC2=O)C3=O)cc1 [Compound 5, (R)-4-(3-(4-(2-(2-(2-(2-((2-(2,6-dioxopiperidin-3-yl)-1,3-dioxoisoindolin-4-yl)amino)ethoxy)ethoxy)ethoxy)ethoxy)phenyl)-4,4-dimethyl-5-oxo-2-thioxoimidazolidin-1-yl)-2-(trifluoromethyl) benzonitrile] fall in the same range of Dmax at 1 µM: 31 to 50% for the first, 31 to 50% for the second.

Work on CC1(C)C(=O)N(c2ccc(C#N)c(C(F)(F)F)c2)C(=S)N1c1ccc(OCCOCCOCCOCCOCCOCCNc2cccc3c2C(=O)N(C2CCC(=O)NC2=O)C3=O)cc1 (stereo not drawn) [Compound 6, 4-(3-(4-((17-((2-(2,6-dioxopiperidin-3-yl)-1,3-dioxoisoindolin-4-yl)amino)-3,6,9,12,15-pentaoxa-heptadecyl)oxy)phenyl)-4,4-dimethyl-5-oxo-2-thioxoimidazolidin-1-yl)-2-(trifluoromethyl) benzonitrile] yielded a Dmax at 1 µM of 10 to 30%.

Same assay, conditions: 16 h

CC1(C)C(=O)N(c2ccc(C#N)c(C(F)(F)F)c2)C(=S)N1c1ccc(OCCCOCCOCCOCCNc2cccc3c2C(=O)N(C2CCC(=O)NC2=O)C3=O)cc1 (stereo not drawn) [Compound 1, 4-(3-(4-(3-(2-(2-(2-((2-(2,6-dioxopiperidin-3-yl)-1,3-dioxoisoindolin-4-yl)amino)ethoxy)ethoxy)ethoxy)propoxy)phenyl)-4,4-dimethyl-5-oxo-2-thioxoimidazolidin-1-yl)-2-(trifluoromethyl) benzonitrile] gave a Dmax of 10 to 30%.

System: c-Myc
Assay: c-Myc ELISA assay protocol in 22RV-1 cells
Assay type: cell-based, human
Conditions: 18 h, read-out: cMyc IC50
Procedure: as §1
5. c-Myc ELISA Assay Protocol
22RV-1 cells were purchased from ATCC and cultured in RPMI+10% FBS media. Cells were harvested using trypsin (Gibco #25200-114), counted and seeded at 30,000 cells/well at a volume of 75 μL/well in RPMI +10% FBS media in 96-well plates. The cells were dosed with compounds diluted in 0.1% DMSO, incubated for 18 h then washed and lysed in 50 uL RIPA buffer (50 mM Tris pH8, 150 mM NaCl, 1% Tx-100, 0.1% SDS, 0.5% sodium deoxycholate) supplemented with protease and phosphatase inhibitors. The lysates were clarified at 4000 rpm at 4° C. for 10 minutes then aliquots were added into a 96-well ELISA plate of Novex Human c-myc ELISA kit from Life Technologies Catalog #KHO2041. 50 ul of c-Myc Detection antibody was added into every well, the plates incubated at room temperature for 3 hrs, then washed with ELISA wash buffer. 100 uL of the anti-rabbit IgG-HRP secondary antibody was added to each well and incubated at room temperature for 30 minutes. The plates were washed with ELISA wash buffer, 100 μL TMB added to each well, and then monitored every 5 minutes for a color change. 100 μL of stop solution is added and the plates read at 450 nm.

First: Cc1sc2c(c1C)C(c1ccc(Cl)cc1)=N[C@@H](CC(=O)N[C@H]1CCN(C(=O)c3ccc(OCCNc4cccc5c4C(=O)N(C4CCC(=O)NC4=O)C5=O)cc3)C1)c1nnc(C)n1-2 (stereo partly drawn) [Compound 55, 2-[(9S)-7-(4-chlorophenyl)-4,5,13-trimethyl-3-thia-1,8,11,12-tetraazatricyclo [8.3.0.0^2,^6]trideca-2(6),4,7,10,12-pentaen-9-yl]-N-[(3S)-1-[4-(2-{[2-(2,6-dioxopiperidin-3-yl)-1,3-dioxo-2,3-dihydro-1H-isoindol-4-yl]amino}ethoxy)benzoyl]pyrrolidin-3-yl]acetamide]
Second: Cc1sc2c(c1C)C(c1ccc(Cl)cc1)=N[C@@H](CC(=O)N[C@H]1CCN(C(=O)c3ccc(OCCNc4cccc5c4CN(C4CCC(=O)NC4=O)C5=O)cc3)C1)c1nnc(C)n1-2 (stereo partly drawn) [Compound 59, 2-[(9S)-7-(4-chlorophenyl)-4,5,13-trimethyl-3-thia-1,8,11,12-tetraazatricyclo [8.3.0.0^2,^6]trideca-2(6),4,7,10,12-pentaen-9-yl]-N-[(3S)-1-[4-(2-{[2-(2,6-dioxopiperidin-3-yl)-1-oxo-2,3-dihydro-1H-isoindol-4-yl]amino}ethoxy)benzoyl]pyrrolidin-3-yl]acetamide]
The IC50 of the first is lower: under 50 nM for the first, over 50 nM for the second.

First: Cc1sc2c(c1C)C(c1ccc(Cl)cc1)=N[C@@H](CC(=O)Nc1ccc(OCCOCCOCCNc3cccc4nc(C)n(C5CCC(=O)NC5=O)c(=O)c34)cc1)c1nnc(C)n1-2 (stereo partly drawn) [Compound 56, 2-[(9S)-7-(4-chlorophenyl)-4,5,13-trimethyl-3-thia-1,8,11,12-tetraazatricyclo [8.3.0.0^2,^6]trideca-2(6),4,7,10,12-pentaen-9-yl]-N-(4-{2-[2-(2-{[3-(2,6-dioxopiperidin-3-yl)-2-methyl-4-oxo-3,4-dihydroquinazolin-5-yl]amino}ethoxy)ethoxy]ethoxy}phenyl)acetamide]
Second: Cc1sc2c(c1C)C(c1ccc(Cl)cc1)=N[C@@H](CC(=O)NCCCOCCCNc1cccc3nc(C)n(C4CCC(=O)NC4=O)c(=O)c13)c1nnc(C)n1-2 (stereo partly drawn) [Compound 58, 2-[(9S)-7-(4-chlorophenyl)-4,5,13-trimethyl-3-thia-1,8,11,12-tetraazatricyclo [8.3.0.0^2,^6]trideca-2(6),4,7,10,12-pentaen-9-yl]-N-[3-(3-{[3-(2,6-dioxopiperidin-3-yl)-2-methyl-4-oxo-3,4-dihydroquinazolin-5-yl]amino}propoxy)propyl]acetamide]
The IC50 of the first is lower: under 50 nM for the first, over 50 nM for the second.

Compared with Cc1sc2c(c1C)C(c1ccc(Cl)cc1)=N[C@@H](CC(=O)NCCCCCNc1cccc3c1CN(C1CCC(=O)NC1=O)C3=O)c1nnc(C)n1-2 (stereo partly drawn) [Compound 57, 2-[(9S)-7-(4-chlorophenyl)-4,5,13-trimethyl-3-thia-1,8,11,12-tetraazatricyclo [8.3.0.0^2,^6]trideca-2(6),4,7,10,12-pentaen-9-yl]-N-(5-{[2-(2,6-dioxopiperidin-3-yl)-1-oxo-2,3-dihydro-1H-isoindol-4-yl]amino}pentyl) acetamide], Cc1sc2c(c1C)C(c1ccc(Cl)cc1)=N[C@@H](CC(=O)N[C@H](C)c1cccc(OCCNc3cccc4c3CN(C3CCC(=O)NC3=O)C4=O)c1)c1nnc(C)n1-2 (stereo partly drawn) [Compound 60, 2-[(9S)-7-(4-chlorophenyl)-4,5,13-trimethyl-3-thia-1,8,11,12-tetraazatricyclo [8.3.0.0^2,^6]trideca-2(6),4,7,10,12-pentaen-9-yl]-N-[(1R)-1-[3-(2-{[2-(2,6-dioxopiperidin-3-yl)-1-oxo-2,3-dihydro-1H-isoindol-4-yl]amino}ethoxy)phenyl]ethyl] acetamide] is higher in IC50: under 50 nM for the first, over 50 nM for the second.
